The source of these data is patent publication US20130136794A1, “HETEROARYL (ALKYL) DITHIOCARBAMATE COMPOUNDS, PREPARATION METHODS AND USES THEREOF” (PEKING UNIVERSITY, priority 2010, published 2013).

Where two headings read alike, the source gives them in different places.

Data set [1] concerns HCT 116 (cell line of low-expression of both EGFR and erbB2). Description: MTT assay on control cell line with low EGFR and erbB2 expression (72 h). Type of data set: cell-based. The settings on record: Homo sapiens, read-out: HCT 116 (μM), EC50. The procedure:
(§1) Experimental operations: Human breast cancer SK-BR-3, MDA-MB-468 cells and human colon cancer HCT 116 cells were cultured in vitro. The cells were collected after growth to logarithmic phase, and centrifugated at 1000 rpm for 5 min. The supernatant was discarded, and the cells were suspended with an appropriate amount of medium. The cell concentration was adjusted to 3.5×10^3/mL. Then the cells were seeded into 96-well culture plates in 100 μL per well, and placed in an incubator (37° C., 5% CO2) to be incubated for 24 h. The testing drugs were added, and the negative control group was added DMSO with the final concentration of 5%. Each group has three parallel wells. After being incubated in the incubator for 72 h, 20 μL of 5 mg/mL MTT was added into each well, and the plate was placed at 37° C. for 4 h. 200 μL of DMSO was added into each well, and then the plate was oscillated in an oscillator for 30 min. […] The EC50 values were calculated by using Prism Graphpad statistical software.
In general terms: Tetrazolium dyes change colour on reduction, which living cells bring about.

The test system of data set [2] is MDA-MB-468 (cell line of EGFR over-expression). Description: MTT assay on EGFR over-expressing cell line (72 h). Type of data set: cell-based. The settings on record: Homo sapiens, read-out: MDA-MB-468 (μM), EC50. The procedure: as §1
Data set [3] has as its system human leukaemia HL-60 cells. Description: EC50 on proliferation of HL-60 cells (MTT, 48 h). The settings on record: read-out: HL-60 EC50 (nmol). Type of data set: cell-based. The procedure:
(§2) EC50 values of the compounds according to the present invention on the proliferation of human leukaemia HL-60 cells and Bel-7402 cells were determined by using the following method, and the results are shown in Table 2.
Testing method for EC50 values on the human leukaemia HL-60 cells: The human leukaemia HL-60 cells were cultured in vitro. The cells were collected after growth to logarithmic phase, and centrifugated at 1000 rpm for 5 min. The supernatant was discarded and the cells were suspended in an appropriate amount of medium. The cell concentration was adjusted to 1.2×10^4/mL. The cells were seeded into 96-well culture plates in 90 μL per well. For each well of the drug treatment groups, 10 μL of medium-diluted drug was added, whereas for the blank control groups, the same amount of medium was added. Every testing drug was set up for three parallel wells, and also three control wells with only testing drugs (without cell) were set up. Negative control groups were medium containing 0.5% DMSO. After the plate was incubated in an incubator for 48 h, 10 μL of 5 mg/mL MTT was added into each well, and then the plate was placed for 3 h at 37° C. 100 μL of ternary solution (5% SDS, 10 mM HCl, 5% isopropanol) was added into each well, and the plate was kept at 37° C. overnight. The absorbance (OD) was measured at 595 nm/620 nm. The EC50 values were calculated by using Prism Graphpad statistical software.

Another data set deals with Bel-7402 cells. Put plainly: EC50 on proliferation of Bel7402 cells (SRB, 48 h). Type of data set: cell-based. The settings on record: Homo sapiens, read-out: Bel7402 EC50 (nmol). The procedure:
as §2
Testing method for ED50 values on the human Be17402ce11: After the cells were incubated with the addition of the drugs for 48 h, the plates were taken out. 50 μL of pre-cooled 500 g/L trichloroacetic acid was added into each well. The plates were kept in 4° C. refrigerator for 1 h after standing for 5 min, taken out, washed with deionized water for 5 times, and dried in the air. After the plates were completely dried, 100 μL of 0.4% SRB (formulated in 1% acetic acid) was added into each well. Following staining for 20 min, the staining solution was discarded, and the residue was washed with 1% acetic acid for 5 times to remove the uncombined dye. After being dried in the air, the residue was dissolved in 150 μL of 10 mmol/L unbuffered
Tris basic solution (pH=10.5), and oscillated in an oscillator for 5 min. The absorbance of each well at 490 nm was measured with TECAN enzyme mark instrument. The cells in background control plates were treated in the same way for measuring OD490. The EC50 values were calculated by using Prism Graphpad statistical software.

Data set [4] relates to SK-BR-3 (cell line of erbB2 over-expression). Description: MTT assay on erbB2 over-expressing cell line (72 h). The data set is classed as cell-based. The settings on record: Homo sapiens, read-out: SK-BR-3 (μM), EC50. The procedure: as §1
Data set [5] has as its system BGC-823 human gastric cancer. Put plainly: Inhibition of tumor cell proliferation at 10 μM, Model B: SRB method. The data set is classed as cell-based. The settings on record: BGC-823, SRB method, read-out: Model B Inhibitory rate (%). An excerpt:
(§3) The evaluation of the compounds according to the present invention on the inhibition rate of the proliferation of four different tumor cells, using the routine method for anti-tumor activity tests in the pharmaceutical filed, for example the method described in the following literature: (J. Immuno/Method, 1983, 65, 55).
In general terms: The SRB assay estimates cell density from bound dye.

For another data set, the system named is HL-60 human leukaemia. Put plainly: Inhibition of tumor cell proliferation at 10 μM, Model A: MTT method. Type of data set: cell-based. The settings on record: HL-60, MTT method, read-out: Model A Inhibitory rate (%).
Description: as §3

The test system of data set [6] is Bel-7402 human liver cancer. Put plainly: Inhibition of tumor cell proliferation at 10 μM, Model C: SRB method. The data set is classed as cell-based. The settings on record: Bel-7402, SRB method, read-out: Model C Inhibitory rate (%).
Description: as §3

The subject of data set [7] is KB human nasopharyngeal cancer. Description: Inhibition of tumor cell proliferation at 10 μM, Model D: SRB method. Type of data set: cell-based. The settings on record: read-out: Model D Inhibitory rate (%).
Description: as §3

The EC50 is the concentration needed to bring the measured effect to its halfway point. Take `CCCCOC(=O)CCSC(=S)NCc1cccnc1` [Compound 47, 2-(butoxycarbonyl)ethyl (pyridin-3-ylmethyl)dithiocarbamate]: the EC50 in data set [1] (HCT 116 cells, MTT, 72 h) was 7.83 µM; in data set [2] (MDA-MB-468 cells, MTT, 72 h), 12.8 µM; in [3] it was 0.0254 µM; with Bel-7402 cells it was 0.00636 µM; in data set [4] (SK-BR-3 cells, MTT, 72 h), 4.46 µM.
Consider `[O-][S+](CCSC(=S)NCc1cccnc1)Cc1ccccc1` (stereo not drawn) [Compound 16, 2-(benzylsulfinyl)ethyl(pyridin-3-ylmethyl)dithiocarbamate], for which the inhibition at 10 µM stood at 72.3% in data set [5], 26.1% with HL-60 human leukaemia, 96.1% in [6] and 93.1% in [7]. The EC50 in [1] (HCT 116 cells, MTT, 72 h) was 16.2 µM; in data set [2] (MDA-MB-468 cells, MTT, 72 h) it was 0.953 µM; in data set [4] (SK-BR-3 cells, MTT, 72 h), 0.655 µM.
By melting point is commonly meant the temperature of the solid-liquid transition. As for `CC1=CSC(=S)N(Cc2ccco2)C1(C)O` (stereo not drawn) [Compound 4, 3-(furan-2-ylmethyl)-4-hydroxy-4,5-dimethyl-3,4-dihydro-2H-1,3-thiazine-2-thione], the melting point was 88 to 89 °C. In [5], the inhibition at 10 µM was found to be 15.2%. Also, the inhibition at 10 µM in the data set with HL-60 human leukaemia turned out to be 23.7%. Also, the inhibition at 10 µM in data set [6] came out at 2.91%. In data set [7], the inhibition at 10 µM was determined as 5.76%.
Consider `C[S+]([O-])CCSC(=S)NCc1cccnc1` (stereo not drawn) [Compound 15, 2-(methylsulfinyl)ethyl(pyridin-3-ylmethyl)dithiocarbamate], for which the inhibition at 10 µM is 9.95% in data set [5], 26.1% in the data set on HL-60 human leukaemia, -2.37% in data set [6] and 3.58% in data set [7].
As for `N#CCCSC(=S)NCc1cccnc1` [Compound 11, 2-cyanoethyl(pyridin-3-ylmethyl)dithiocarbamate], the melting point fell in the range of 58 to 60 °C. Moreover, in data set [5], the inhibition at 10 µM came out at 60.4%. In addition, the inhibition at 10 µM with HL-60 human leukaemia worked out at 72.3%. Moreover, the inhibition at 10 µM in data set [6] is 86.1%. For the same compound, the 50% effective concentration (EC50) in [1] (HCT 116 cells, MTT, 72 h) amounted to 10.4 µM. The concentration giving a half-maximal response (EC50) in data set [2] (MDA-MB-468 cells, MTT, 72 h) is 9.54 µM. For the same compound, the EC50 in [3] turned out to be 0.00146 µM. The half-maximal effective concentration (EC50) in the data set on Bel-7402 cells is 0.0272 µM. Further, the EC50 in data set [4] (SK-BR-3 cells, MTT, 72 h) is 2.84 µM. Moreover, in [7], the inhibition at 10 µM was 93.7%.
As to `CC1=CSC(=S)N(Cc2cccnc2)C1(C)O` (stereo not drawn) [Compound 12, 4-hydroxy-4,5-dimethyl-3-(pyridin-3-ylmethyl)-3,4-dihydro-2H-1,3-thiazine-2-thione], the melting point is 71 to 72 °C. Also, in [5], the inhibition at 10 µM amounted to 43.9%. In addition, in the data set with HL-60 human leukaemia, the inhibition at 10 µM came to 79.9%. In addition, the inhibition at 10 µM in data set [6] is 8.66%. Further, in data set [7], the inhibition at 10 µM was determined as 15.2%.
As to `C[S+]([O-])CCSC(=S)NCc1ccco1` (stereo not drawn) [Compound 7, 2-(methylsulfinyl)ethyl(furan-2-ylmethyl)dithiocarbamate], the melting point was in the range of 43 to 45 °C. In addition, the inhibition at 10 µM in data set [5] turned out to be 16%. In addition, the inhibition at 10 µM in the data set on HL-60 human leukaemia was found to be 11.2%. For the same compound, in [6], the inhibition at 10 µM is -8.68%. Also, the inhibition at 10 µM in [7] was 4.07%.
In turn, `[O-][S+](CCSC(=S)NCc1ccco1)Cc1ccccc1` (stereo not drawn) [Compound 8, 2-(benzylsulfinyl)ethyl(furan-2-ylmethyl)dithiocarbamate] yielded a melting point of 51 to 52 °C. Besides, the inhibition at 10 µM in data set [5] is 12.3%. Also, the inhibition at 10 µM with HL-60 human leukaemia amounted to 20.9%. In addition, the inhibition at 10 µM in [6] worked out at 56.9%. Moreover, the inhibition at 10 µM in data set [7] was determined as 10.5%.
For the compound `OB(O)CCSC(=S)NCc1cccnc1` [Compound 14, 2-boronoethyl(pyridin-3-ylmethyl)dithiocarbamate], the melting point is 49 to 50 °C. The inhibition at 10 µM in data set [5] is 68.6%. Also, the inhibition at 10 µM in the data set with HL-60 human leukaemia is 41.4%. Also, the inhibition at 10 µM in data set [6] came to 91%. The inhibition at 10 µM in data set [7] stood at 94.5%.
In the case of `COC(=O)CCSC(=S)NCc1cccnc1` [Compound 10, 2-(methoxycarbonyl)ethyl(pyridin-3-ylmethyl)dithiocarbamate], the inhibition at 10 µM amounted to 72% in data set [5], 61.9% in the data set on HL-60 human leukaemia, 87.5% in [6] and 91.5% in data set [7].
In the case of `COC(=O)CCSC(=S)NCc1ccco1` [Compound 2, 2-(methoxycarbonyl)ethyl(furan-2-ylmethyl)dithiocarbamate], the melting point is 50 to 52 °C. For the same compound, the inhibition at 10 µM in [5] amounted to 16.4%. For the same compound, the inhibition at 10 µM with HL-60 human leukaemia is 19.3%. Also, in data set [6], the inhibition at 10 µM was -1.69%. Besides, in [7], the inhibition at 10 µM worked out at 3.8%.
For `OC1CCSC(=S)N1Cc1cccnc1` (stereo not drawn) [Compound 9, 4-hydroxy-3-(pyridin-3-ylmethyl)-1,3-thiazinane-2-thione], in that order: 56 to 57 °C, 20.3%, 38.9%, 79.5% and 61.3%.
Consider `OC1CCSC(=S)N1Cc1ccco1` (stereo not drawn) [Compound 1, 3-(furan-2-ylmethyl)-4-hydroxy-1,3-thiazinane-2-thione], for which the melting point lay within 42 to 43 °C. For the same compound, in [5], the inhibition at 10 µM turned out to be 20%. For the same compound, the inhibition at 10 µM in the data set on HL-60 human leukaemia came out at 28.4%. For the same compound, the inhibition at 10 µM in data set [6] came to 43.1%. Also, the inhibition at 10 µM in data set [7] worked out at 20.1%.
Consider `N#CCCSC(=S)NCc1ccco1` [Compound 3, 2-cyanoethyl(furan-2-ylmethyl)dithiocarbamate], for which the inhibition at 10 µM is 29.5% in data set [5], 24.6% in the data set on HL-60 human leukaemia, 68.2% in data set [6] and 55.1% in [7].
As for `NS(=O)(=O)CCSC(=S)NCc1cccnc1` [Compound 13, 2-sulfamoylethyl(pyridin-3-ylmethyl)dithiocarbamate], the inhibition at 10 µM in [5] was 18.4%; in the data set on HL-60 human leukaemia, -4.25%; in data set [6], 5.87%; in [7] it was 17.6%.
For the compound `CS(=O)(=O)CCNCc1ccc(-c2ccc3ncnc(Nc4ccc(OCc5cccc(F)c5)c(Cl)c4)c3c2)o1` [Lapatinib, reference compound], the concentration giving a half-maximal response (EC50) in data set [1] (HCT-116, 72 h) turned out to be 42.4 µM; in data set [2] (MDA-MB-468, 72 h) it was 19.6 µM; in data set [4] (SK-BR-3, 72 h), 4.35 µM.
